Molecular target: enoyl acyl carrier protein reductase (InhA) (Mycobacterium tuberculosis, UniProt P9WGR1)
Assay: InhA enzyme inhibition assay
Assay type: biochemical

Chain of enoyl acyl carrier protein reductase (InhA) (P9WGR1 whole entry, looked up): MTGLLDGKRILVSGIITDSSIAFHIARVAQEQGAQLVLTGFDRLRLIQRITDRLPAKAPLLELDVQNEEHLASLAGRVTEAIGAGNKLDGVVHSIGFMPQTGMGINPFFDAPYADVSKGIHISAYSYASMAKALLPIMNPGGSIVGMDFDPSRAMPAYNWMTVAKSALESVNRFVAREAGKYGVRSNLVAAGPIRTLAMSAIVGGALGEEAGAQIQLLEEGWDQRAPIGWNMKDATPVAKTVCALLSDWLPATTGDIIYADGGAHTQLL

O=c1cc(-c2ccccc2)c2cc(Cl)c(OCc3nnn(CCN4CCOCC4)n3)cc2o1 [4c, 7-((2-(2-Morpholinoethyl)-2H-tetrazol-5-yl)methoxy)-6-chloro-4-phenyl-2H-chromen-2-one]
IC50: 565 ± 20 nM

Source: publication PMC11232110 (RSC Advances, 2024)
